Starred links: 1 amine or outer side, 2 acyl side, 3 side chain; linkers in the order of their positions; H or OH if unused. Positions of bridges follow the written chain, without caps; N, C: chain ends. Non-standard residues stand in square brackets, D forms with d. Residues, ends and D or L forms follow the SMILES beside them. *: point of attachment. Bip(4'-NHCO-C6H4-4-CH2COOH) = N[C@@H](Cc1ccc(-c2ccc(NC(=O)c3ccc(CC(=O)O)cc3)cc2)cc1)C(=O)O; dArg(ω-(2S)-2,3-diOHpropyl) = N=C(NCCC[C@@H](N)C(=O)O)NC[C@H](O)CO; X64 = O=C(O)CCC(=O)Nc1ccc(-c2ccc(C[C@H](N[*:1])C(=O)[*:2])cc2)cc1; Bip(4'-NH) = O=C([C@H](Cc1ccc(-c2ccc(N[*:3])cc2)cc1)N[*:1])[*:2]; Bip(4'-CONHMe) = CNC(=O)c1ccc(-c2ccc(C[C@H](N)C(=O)O)cc2)cc1; dArg(ω-Bn(3-CH2OH)) = N=C(NCCC[C@@H](N)C(=O)O)NCc1cccc(CO)c1; Indazole3carbonyl(1-CH2COOH) = O=C(O)Cn1nc(C(=O)*)c2ccccc21; X72 = N=C(N)Nc1ccc(CCNC(=N)NCCC[C@@H](N[*:1])C(=O)[*:2])cc1; Bip(4'-COOH) = N[C@@H](Cc1ccc(-c2ccc(C(=O)O)cc2)cc1)C(=O)O; Bip(4'-NHAc) = CC(=O)Nc1ccc(-c2ccc(C[C@H](N)C(=O)O)cc2)cc1; dArg(ω-Bn) = N=C(NCCC[C@@H](N)C(=O)O)NCc1ccccc1; Ala(morpholin-4-yl) = N[C@@H](CN1CCOCC1)C(=O)O; Benzoyl(3-OCH2COOH) = O=C(O)COc1cccc(C(=O)*)c1; Phe(3-CONH2) = NC(=O)c1cccc(C[C@H](N)C(=O)O)c1; Phe(4-CONH2) = NC(=O)c1ccc(C[C@H](N)C(=O)O)cc1; Bip = N[C@@H](Cc1ccc(-c2ccccc2)cc1)C(=O)O; 2Pal = N[C@@H](Cc1ccccn1)C(=O)O; 2Thi = N[C@@H](Cc1cccs1)C(=O)O; Cha = N[C@@H](CC1CCCCC1)C(=O)O; Tle = CC(C)(C)[C@H](N)C(=O)O; Sar = CNCC(=O)O
Molecular target: TNFα (Homo sapiens, UniProt P01375)
Sequence (P01375 77-233 limits assumed): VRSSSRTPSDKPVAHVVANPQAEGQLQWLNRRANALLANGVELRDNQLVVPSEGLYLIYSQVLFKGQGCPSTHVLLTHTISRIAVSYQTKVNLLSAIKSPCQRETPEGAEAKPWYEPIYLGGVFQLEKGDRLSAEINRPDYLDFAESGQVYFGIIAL
Assay: TNF-Induced HEK-Blue Assay
Assay type: cell-based
Conditions: not given

SMILES | IC50 [nM]
CC(C)C[C@@H]1NC(=O)[C@H](CCCNC(=N)N)NC(=O)[C@H](C(C)C)NC(=O)[C@@H]2CCCN2C(=O)[C@H](C(C)C)NC(=O)[C@@H](CCCNC(=N)NCCc2ccc(NC(=N)N)cc2)NC(=O)[C@H](CC(=O)O)NC(=O)[C@@H]2CCCN2C(=O)CN(C)C(=O)[C@H](Cc2ccc(-c3ccc(NC(=O)c4nn(CC(=O)O)c5ccccc45)cc3)cc2)NC(=O)[C@H](Cc2ccc(-c3ccccc3)cc2)NC(=O)[C@H](CN2CCOCC2)NC(=O)CSC[C@@H](C(=O)NCC(N)=O)NC1=O [Example 436] ({CH2CO}-[Ala(morpholin-4-yl)][Bip][Bip(4'-NH)](Indazole3carbonyl(1-CH2COOH))[Sar]PD[X72]VPVRLCG-NH2; thioether N-13) | < 50
CC(C)C[C@@H]1NC(=O)[C@H](Cc2cccc(C(N)=O)c2)NC(=O)[C@H](C(C)C)NC(=O)[C@@H]2CCCN2C(=O)[C@H](C(C)C)NC(=O)[C@@H](CCCNC(=N)NC[C@H](O)CO)NC(=O)[C@H](CC(=O)O)NC(=O)[C@H](Cc2ccc(O)cc2)NC(=O)CN(C)C(=O)[C@H](Cc2ccc(-c3ccc(NC(=O)c4nn(CC(=O)O)c5ccccc45)cc3)cc2)NC(=O)[C@H](Cc2ccc(-c3ccccc3)cc2)NC(=O)[C@H](CN2CCOCC2)NC(=O)CSC[C@@H](C(=O)NCC(N)=O)NC1=O [Example 546] ({CH2CO}-[Ala(morpholin-4-yl)][Bip][Bip(4'-NH)](Indazole3carbonyl(1-CH2COOH))[Sar]YD[dArg(ω-(2S)-2,3-diOHpropyl)]VPV[Phe(3-CONH2)]LCG-NH2; thioether N-13) | < 50

Same assay, conditions: HEK-Blue-CD40L cells, NF-kB-driven secreted alkaline phosphatase reporter; TNFα 0.5 ng/ml; 18 h; read-out: TNF induced HEK-Blue assay IC50 value

IC50 [nM] | SMILES
50 to 200 | CC(C)C[C@@H]1NC(=O)[C@H](CCCNC(=N)N)NC(=O)[C@H](C(C)C)NC(=O)[C@@H]2CCCN2C(=O)[C@H](C(C)C)NC(=O)[C@@H](CCCNC(=N)N)NC(=O)[C@H](CC(=O)O)NC(=O)[C@H](Cc2ccccn2)NC(=O)CN(C)C(=O)[C@H](Cc2ccc(-c3ccccc3)cc2)NC(=O)[C@H](Cc2ccc(-c3ccccc3)cc2)NC(=O)[C@H](CN2CCOCC2)NC(=O)CSC[C@@H](C(=O)NCC(N)=O)NC1=O [Example 205] ({CH2CO}-[Ala(morpholin-4-yl)][Bip][Bip][Sar][2Pal]D[dR]VPVRLCG-NH2; thioether N-13)
< 50 | CC[C@H](C)[C@@H]1NC(=O)[C@@H](CCCNC(=N)N)NC(=O)[C@H](CC(=O)O)NC(=O)[C@H](Cc2cnc[nH]2)NC(=O)CN(C)C(=O)[C@H](Cc2ccc(-c3ccc(NC(=O)c4ccc(CC(=O)O)cc4)cc3)cc2)NC(=O)[C@H](Cc2ccc(-c3ccc(C(=O)NC)cc3)cc2)NC(=O)[C@H](CC2CCCCC2)NC(=O)CSC[C@@H](C(=O)NCC(N)=O)NC(=O)[C@H](CC(C)C)NC(=O)[C@H](Cc2cnc[nH]2)NC(=O)[C@H](C(C)C)NC(=O)[C@@H]2CCCN2C1=O [Example 528] ({CH2CO}-[Cha][Bip(4'-CONHMe)][Bip(4'-NHCO-C6H4-4-CH2COOH)][Sar]HD[dR]IPVHLCG-NH2; thioether N-13)
50 to 200 | CC[C@H](C)[C@@H]1NC(=O)[C@@H](CCCNC(=N)N)NC(=O)[C@H](CC(=O)O)NC(=O)[C@H](Cc2cnc[nH]2)NC(=O)CN(C)C(=O)[C@H](Cc2ccc(-c3ccc(NC(=O)CCC(=O)O)cc3)cc2)NC(=O)[C@H](Cc2ccc(-c3ccccc3)cc2)NC(=O)[C@H](CC2CCCCC2)NC(=O)CSC[C@@H](C(=O)NCC(N)=O)NC(=O)[C@H](CC(C)C)NC(=O)[C@H](Cc2cnc[nH]2)NC(=O)[C@H](C(C)C)NC(=O)[C@@H]2CCCN2C1=O [Example 323] ({CH2CO}-[Cha][Bip][X64][Sar]HD[dR]IPVHLCG-NH2; thioether N-13)
200 to 2000 | CC(C)C[C@@H]1NC(=O)[C@H](CCCNC(=N)N)NC(=O)[C@H](C(C)C)NC(=O)[C@@H]2CCCN2C(=O)[C@H](C(C)C)NC(=O)[C@H](CCCNC(=N)N)NC(=O)[C@H](CC(=O)O)NC(=O)[C@@H]2CCCN2C(=O)CN(C)C(=O)[C@H](Cc2ccc(-c3ccccc3)cc2)NC(=O)[C@H](Cc2ccc(-c3ccccc3)cc2)NC(=O)[C@H](C(C)C)NC(=O)CSC[C@@H](C(=O)NCC(N)=O)NC1=O [Example 9] ({CH2CO}-V[Bip][Bip][Sar]PDRVPVRLCG-NH2; thioether N-13)
< 50 | CC(=O)Nc1ccc(-c2ccc(C[C@@H]3NC(=O)[C@H](Cc4ccc(-c5ccccc5)cc4)NC(=O)[C@H](CN4CCOCC4)NC(=O)CSC[C@@H](C(=O)NCC(N)=O)NC(=O)[C@H](CC(C)C)NC(=O)[C@H](CCCNC(=N)N)NC(=O)[C@H](C(C)C)NC(=O)[C@@H]4CCCN4C(=O)[C@H](C(C)C)NC(=O)[C@@H](CCCNC(=N)N)NC(=O)[C@H](CC(=O)O)NC(=O)[C@H](Cc4cnc[nH]4)NC(=O)CN(C)C3=O)cc2)cc1 [Example 212] ({CH2CO}-[Ala(morpholin-4-yl)][Bip][Bip(4'-NHAc)][Sar]HD[dR]VPVRLCG-NH2; thioether N-13)
50 to 200 | CC(C)C[C@@H]1NC(=O)[C@H](Cc2ccc(C(N)=O)cc2)NC(=O)[C@H](C(C)C)NC(=O)[C@@H]2CCCN2C(=O)[C@H](C(C)C)NC(=O)[C@@H](CCCNC(=N)N)NC(=O)[C@H](CC(=O)O)NC(=O)[C@H](Cc2ccc(O)cc2)NC(=O)CN(C)C(=O)[C@H](Cc2ccc(-c3ccccc3)cc2)NC(=O)[C@H](Cc2ccc(-c3ccccc3)cc2)NC(=O)[C@H](CN2CCOCC2)NC(=O)CSC[C@@H](C(=O)NCC(N)=O)NC1=O [Example 151] ({CH2CO}-[Ala(morpholin-4-yl)][Bip][Bip][Sar]YD[dR]VPV[Phe(4-CONH2)]LCG-NH2; thioether N-13)
< 50 | CC(C)C[C@@H]1NC(=O)[C@H](Cc2ccc(O)cc2)NC(=O)[C@H](C(C)C)NC(=O)[C@@H]2CCCN2C(=O)[C@H](C(C)C)NC(=O)[C@@H](CCCNC(=N)NCc2ccccc2)NC(=O)[C@H](CC(=O)O)NC(=O)[C@@H]2CCCN2C(=O)CN(C)C(=O)[C@H](Cc2ccc(-c3ccc(NC(=O)c4ccc(CC(=O)O)cc4)cc3)cc2)NC(=O)[C@H](Cc2ccc(-c3ccc(C(=O)O)cc3)cc2)NC(=O)[C@H](CC2CCCCC2)NC(=O)CSC[C@@H](C(=O)NCC(N)=O)NC1=O [Example 582] ({CH2CO}-[Cha][Bip(4'-COOH)][Bip(4'-NHCO-C6H4-4-CH2COOH)][Sar]PD[dArg(ω-Bn)]VPVYLCG-NH2; thioether N-13)
< 50 | CC[C@H](C)[C@@H]1NC(=O)[C@@H](CCCNC(=N)N)NC(=O)[C@H](CC(=O)O)NC(=O)[C@H](Cc2ccc(O)cc2)NC(=O)CN(C)C(=O)[C@H](Cc2ccc(-c3ccc(NC(C)=O)cc3)cc2)NC(=O)[C@H](Cc2ccc(-c3ccccc3)cc2)NC(=O)[C@H](C(C)(C)C)NC(=O)CSC[C@@H](C(=O)NCC(N)=O)NC(=O)[C@H](CC(C)C)NC(=O)[C@H](Cc2cccs2)NC(=O)[C@H](C(C)C)NC(=O)[C@@H]2CCCN2C1=O [Example 260] ({CH2CO}-[Tle][Bip][Bip(4'-NHAc)][Sar]YD[dR]IPV[2Thi]LCG-NH2; thioether N-13)
50 to 200 | CC[C@H](C)[C@@H]1NC(=O)[C@@H](CCCNC(=N)NCc2cccc(CO)c2)NC(=O)[C@H](CC(=O)O)NC(=O)[C@H](Cc2cnc[nH]2)NC(=O)CN(C)C(=O)[C@H](Cc2ccc(-c3ccc(NC(=O)c4cccc(OCC(=O)O)c4)cc3)cc2)NC(=O)[C@H](Cc2ccc(-c3ccccc3)cc2)NC(=O)[C@H](CC2CCCCC2)NC(=O)CSC[C@@H](C(=O)NCC(N)=O)NC(=O)[C@H](CC(C)C)NC(=O)[C@H](Cc2cnc[nH]2)NC(=O)[C@H](C(C)C)NC(=O)[C@@H]2CCCN2C1=O [Example 498] ({CH2CO}-[Cha][Bip][Bip(4'-NH)](Benzoyl(3-OCH2COOH))[Sar]HD[dArg(ω-Bn(3-CH2OH))]IPVHLCG-NH2; thioether N-13)

Reference: patent US20250145665A1, “MACROCYCLIC PEPTIDES USEFUL AS MODULATORS OF TNF ALPHA” (Bristol-Myers Squibb Company, priority 2023, published 2025)
